The subject of data set [1] is gelsolin. As to conditions: equilibrium dialysis, high NaCl concentrations, cited from earlier work. Background: Equilibrium dialysis compares concentrations on both sides of a semipermeable membrane.
The nature of data set [2]: Fluorescence emission of ATP-N with cations in the absence of gelsolin (precipitation). The format is physicochemical. The protocol: Supplementary file pone.0201826.s005.pdf: S5 Fig Assessment of the effects of calcium and ATP on the binding of ATP-N and PIP2-F to gelsolin. (A) Kds were calculated from the fit data with Eq 2 of gelsolin:PIP2-F binding under different calcium concentrations in the absence or presence of ATP. In the absence of ATP, PIP2-F (0.5 μM) binds to gelsolin, as reflected by thehigh affinity, across a wide range of calcium concentrations. […] (B) In the absence of gelsolin, calcium directly precipitates ATP-N (C, open triangles) with a half-maximum value of 70.4 ± 0.7 μM. Magnesium has no effect on the fluorescence emission of ATP-N either in the absence (M, orange circles) or presence of 10 μM calcium (MC, purple squares). Data were fitted with simple sigmoidal curves. (C) The reported FURA-2FF dissociation constant for calcium ions is 25 μM (A.G. Scientific Inc.). The calcium-dependent fluorescence emission profile of FURA-2FF (2 μM) over pCa range of 5–7 was similar in the presence and absence of 20 μM PIP2, which were fitted with simple sigmoidal curves. […] The measurement was carried out with a Perkin Elmer LS-55 spectrofluorimeter (λex = 340 nm, λem = 505 nm). (PDF) Click here for additional data file.

Data set [3] concerns the target T1, gelsolin (Homo sapiens, UniProt P06396).
T1 construct: His tag (cleaved yes); made in house; host or cells: E. coli Rosetta2 (DE3) pLysS, pSY5 plasmid
As to the kind of experiment: Steady-state fluorescence anisotropy of ATP-N binding to gelsolin. The method, then:
(§1) His-tagged human wild-type gelsolin was expressed in E. coli strain Rosetta2 (DE3) pLysS cells from a pSY5 plasmid. […] Traces of calcium were removed by dialysis (2 mM Tris-HCl, 1 mM EGTA, pH 7.4, overnight). Rabbit skeletal muscle actin was prepared from acetone powder (Pel-Freez Biologicals) in a protocol modified from Spudich and Watt. Actin was stored in buffer A (2 mM Tris-HCl, 0.2 mM ATP (ATP disodium trihydrate, Sigma-Aldrich), 0.1 mM CaCl2 (pCa 4), 0.1 mM DTT and 0.005% NaN3, pH 7.4). Alexa Fluor^TM 488 C5 Maleimide (Life Technologies) was used to label cysteine residues of gelsolin based on the manufacturer’s recommendations (Thermo Fisher Scientific).
(§2) We used a fluorescent derivative of PIP2 (PtdIns-(4,5)-P2-fluorescein, Cayman Chemicals, NU-10010388, λex = 493 nm, λem = 520 nm, abbreviated as PIP2-F) and a fluorescent derivative of ATP (N^6-(6-amino)hexyl-ATP-ATTO-532, Jena Bioscience, NU-805-532, λex = 532 nm, λem = 553 nm, abbreviated as ATP-N) as probes for the binding of PIP2 and ATP to gelsolin. Fluorescence intensities were measured on a Safire^2 monochromator microplate reader (TECAN) at 22°C. Steady-state fluorescence anisotropy values were determined according to Eq 1 [65], where IVV and IVH, respectively, are the intensities of vertically and horizontally polarized emission on excitation with vertically polarized light, with the correction factor, G, being the ratio of IVH/IVV.
(§3) The dissociation constants for ATP and PIP2 were calculated using a hyperbolic model from anisotropy data that had reached saturation during the gelsolin titrations Eq 2: r=rf+(rb−rf)(Kd+[G]+[L]−(Kd+[G]+[L])^2−4[G][L]/2[L]) (2) where rf is the anisotropy of free ligand, rb is the anisotropy of gelsolin-bound ligand, [L] is the total concentration of ligand, Kd is the dissociation constant and [G] is the total concentration of gelsolin. The anisotropy of 0.5 μM ATP-N was measured in the presence of gelsolin concentrations: 0, 0.2, 1.5, 2, 3, 5 and 8 μM. Saturation was evident at 5 μM characterized by an anisotropy value of 0.15 ± 0.006. The calcium and magnesium sensitivities of ATP binding to gelsolin were characterized by the change in anisotropy of solutions containing 0.5 μM ATP-N in the presence of 5 μM of gelsolin over a range of divalent cation concentrations of pCa 2–12 or pMg 1–12, where pCa and pMg refer to[…]. […] Anisotropy of 0.5 μM or 0.25 μM solutions of PIP2-F in the presence of 5 μM gelsolin was used to probe the changes in binding of the complexes under different calcium, magnesium, salt and ATP conditions.
On the technique in general: In fluorescence polarisation assays a small probe gives low polarisation when free and higher when bound to something large.

In data set [4] the target is T1, gelsolin. As to the kind of experiment: Steady-state fluorescence anisotropy of PIP2-F binding to gelsolin. The protocol:
as §1, §2
as §3, with “Saturation was evident at 5 μM characterized by an anisotropy value of 0.15 ± 0.006.” left out

Details of data set [5]: method as in A.G. Scientific Inc. As to conditions: ref A.G. Scientific Inc.; read-out: dissociation constant for calcium ions; cited from earlier work.
Data set [6] is described as follows: Critical micelle concentration by dynamic light scattering. The format is physicochemical. The method, then: tested, PIP2-F was free from micelle formation at concentrations of 0.5 µM or below, whereas […]
Methods: The critical micelle concentrations of PIP2 and 1-(1-octadecanoyl-fluorescein-2R-octadecanoylphosphatidyl)inositol-4,5-bisphosphate (Cayman Chemical, abbreviated as PIP2-F) were determined by dynamic light scattering (Huang et al., 2011). Fifty microliter samples were prepared by serial dilution of PIP2 or PIP2-F into a low salt buffer (2 mM Tris-HCl, pH 7.4), or the same buffer supplemented with 100 mM KCl, 1 mM MgCl2, and/or 1 mM CaCl2. After incubation for 30 min, the samples were centrifuged at 15,000 x g for 10 min, transferred into a 384-well clear bottom plate, and light scattering was measured using a Wyatt Dynapro plate reader at room temperature. The concentrations of PIP2-F were subsequently determined by light absorbance at 494 nm with a Nanodrop spectrophotometer. […]
Huang, W., Jiang, D., Wang, X., Wang, K., Sims, C. E., Allbritton, N. L. and Zhang, Q.

Where [7] appears, read: 0.5 μM ATP-N, 5 μM gelsolin, sigmoidal fitting.

Where two headings read alike, the source gives them in different places. Some results are limits rather than exact numbers.

T1 sequence (P06396 28-782): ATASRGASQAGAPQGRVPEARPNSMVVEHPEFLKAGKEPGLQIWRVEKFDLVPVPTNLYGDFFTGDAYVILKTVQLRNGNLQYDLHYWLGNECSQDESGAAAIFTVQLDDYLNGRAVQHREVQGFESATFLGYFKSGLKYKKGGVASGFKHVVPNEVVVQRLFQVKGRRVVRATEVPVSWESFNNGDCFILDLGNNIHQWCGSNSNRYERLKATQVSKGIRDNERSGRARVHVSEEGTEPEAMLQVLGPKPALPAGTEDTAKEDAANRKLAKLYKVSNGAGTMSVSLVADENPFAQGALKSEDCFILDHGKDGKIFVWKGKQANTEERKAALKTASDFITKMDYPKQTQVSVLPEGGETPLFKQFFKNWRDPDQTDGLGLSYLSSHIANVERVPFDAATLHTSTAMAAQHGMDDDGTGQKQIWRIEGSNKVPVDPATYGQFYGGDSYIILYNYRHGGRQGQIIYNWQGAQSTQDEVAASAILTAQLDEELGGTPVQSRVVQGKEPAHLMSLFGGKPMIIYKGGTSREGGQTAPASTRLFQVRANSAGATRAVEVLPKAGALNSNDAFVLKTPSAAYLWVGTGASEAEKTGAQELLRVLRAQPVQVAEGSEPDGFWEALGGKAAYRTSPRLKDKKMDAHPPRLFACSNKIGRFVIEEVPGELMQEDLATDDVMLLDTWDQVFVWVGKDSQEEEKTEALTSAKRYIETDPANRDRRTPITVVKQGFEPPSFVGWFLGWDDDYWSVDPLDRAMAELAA

On to `Nc1ncnc2c1ncn2[C@@H]1O[C@H](COP(=O)(O)OP(=O)(O)O)[C@@H](O)[C@H]1O` [ADP], for which, in the data set on gelsolin [1], the association with gelsolin entry is given as “no significant association”.

On to `Nc1nc2c(ncn2[C@@H]2O[C@H](COP(=O)(O)OP(=O)(O)O)[C@@H](O)[C@H]2O)c(=O)[nH]1` [GDP], for which, in the data set on gelsolin [1], the association with gelsolin entry was “no significant association”.

Turning to `Nc1nc2c(ncn2[C@@H]2O[C@H](COP(=O)(O)OP(=O)(O)OP(=O)(O)O)[C@@H](O)[C@H]2O)c(=O)[nH]1` [GTP], the Kd on gelsolin [1] (read-out: dissociation constant for gelsolin) was 1.8 µM.

As to `[Ca+2]` [calcium], in data set [2], the “half-maximum value of calcium for precipitation of ATP-N” value was determined as 70.4 ± 0.7 µM. Besides, on gelsolin [3] (setting [7]), the “inflection point (pCa) of ATP-N anisotropy decrease” value stood at 5.2. Moreover, at gelsolin [3] (0.5 μM ATP-N, 5 μM gelsolin, read-out: calcium concentration at which 50% of ATP-N remains bound to gelsolin), the IC50 amounted to 6.3 ± 0.2 µM.

As to `[Mg+2]` [magnesium], the “effect on the fluorescence emission of ATP-N” value in data set [2] (absence or presence of 10 μM calcium) was “no effect”. Besides, the “inflection point (pMg) of ATP-N anisotropy decrease” value on gelsolin [3] (setting [7]) was determined as 2.3. In addition, on gelsolin [3] (0.5 μM ATP-N, 5 μM gelsolin, read-out: magnesium concentration at which 50% of ATP-N remains bound to gelsolin), the IC50 was 5000 ± 1100 µM. In addition, the “magnesium concentration above which the ATP effect on gelsolin/PIP2-F is diminished” value at gelsolin [4] (0.5 mM ATP, 0.5 μM PIP2-F, 5 μM gelsolin) was “above 7 mM”.

As for FURA-2FF, the Kd in data set [5] was 25 µM.

Turning to N^6-(6-amino)hexyl-ATP-ATTO-532 [ATP-N], at gelsolin [3] (0.5 μM ATP-N, 5 μM gelsolin), the “anisotropy of ATP-N at saturation” value was found to be 0.15 ± 0.006. Also, the Kd was determined as 0.71 ± 0.52 µM on gelsolin [3] (0.5 μM ATP-N, absence of divalent cations); 1.8 µM at gelsolin [3] (50 mM KCl, 1 mM MgCl2 (pMg 3), titration with gelsolin); 1.27 ± 0.6 µM on gelsolin [3] (100 mM KCl); 1.58 ± 0.85 µM at gelsolin [3] (100 mM KCl, 1 mM MgCl2 (pMg 3)); 1.42 ± 0.27 µM on gelsolin [3] (120 mM KCl); 2.34 ± 0.73 µM on gelsolin [3] (120 mM KCl, 1 mM MgCl2 (pMg 3)). Moreover, the Kd on gelsolin [3] (actin polymerization conditions, above 100 μM calcium) worked out at 8.05 ± 1.32 µM.

Turning to PtdIns-(4,5)-P2-fluorescein [PIP2-F], the “CMC of PIP2-F” value in data set [6] (1 mM CaCl2 with 100 mM KCl or 100 mM KCl and 1 mM MgCl2) is reported as ~ 0.5 μM; in data set [6] (absence of calcium) it was ~ 10 μM. In addition, the micelle formation result in data set [6] (at or below 0.5 μM, buffer conditions tested) was “failed to form micelles”. Moreover, the “steady-state anisotropy of PIP2-F with gelsolin” value on gelsolin [4] (0.5 μM PIP2-F, 5 μM gelsolin, no ATP, 1 mM Ca2+ (pCa 3)) is recorded as 0.04; at gelsolin [4] (0.5 μM PIP2-F, 5 μM gelsolin, no ATP, ≈0–10 μM Ca2+ (pCa 15–5)) it was “approximately 0.12”. For the same compound, the Kd at gelsolin [4] (0.5 μM PIP2-F, absence of divalent cations, read-out: Kd of PIP2-F for gelsolin) is 0.84 ± 0.39 µM; at gelsolin [4] (100 mM KCl, read-out: Kd of PIP2-F for gelsolin) it was 1.35 ± 0.7 µM; at gelsolin [4] (120 mM KCl, read-out: Kd of PIP2-F for gelsolin), 3.12 ± 1.7 µM; at gelsolin [4] (actin polymerization conditions (10 μM Ca2+, 1 mM Mg2+, 50 mM K+), absence of ATP, read-out: Kd of PIP2-F for gelsolin), 2.7 ± 0.2 µM; at gelsolin [4] (no ATP, 1–10 μM calcium (pCa 6–5), absence of KCl and magnesium, read-out: Kd of PIP2-F/gelsolin interaction), below 1 µM; on gelsolin [4] (no ATP, entire calcium range, absence of KCl and magnesium, read-out: Kd of PIP2-F/gelsolin interaction) it was below 20 µM.
